Data from patent publication US20150336919A1, “Sesquiterpene lactone-based pharmaceutical composition for treating gastrointestinal diseases” (CHO DANG PHARM. CO., LTD., priority 2012, published 2015).
One block for each compound: values may come before it.

Tests used:
[1] = tested on: Chinese hamster lung (CHL) cell; experiment: Chromosomal aberration test using Chinese hamster lung (CHL) cell; format: cell-based; details: for Chromosomal aberration test result: dose not given
Text: For measuring the induction of chromosomal aberration, the chromosomal aberration test has been carried out using Chinese hamster lung (CHL) cell. 2 kinds of methods have been adopted, such as, metabolic activation method (+S9) using metabolic activation system and direct method (−S9) without metabolic activation system.
For determining the test material reacting concentration, the cell growth inhibition test has been carried out. The test material has been dissolved and diluted in dimethyl sulfoxide (DMSO). Regardless of metabolic activation system, 12 concentration steps (2.43, 4.87, 9.75, 19.5, 39.1, 78.1, 156.3, 312.5, 625, 1250, 2500, 5000 μg/ml) of test material have been prepared. The cells have been cultured for 24 hours as the same way of main test. […] The medium has been further cultured for 18 hours.
Based upon the data of cell growth inhibition test, maximum concentration has been determined when the cell growth has been inhibited up to 50% as the relative cell numbers.
Regardless of metabolic activation system, the test materials have been prepared after 24 hours from the initiation of test. Then, the number of chromosomal aberration has been counted.

[2] = tested on: HCl-Ethanol inducing gastritis model; experiment: HCl-Ethanol inducing gastritis model; format: in vivo, white rats
Experimental: After white rats have been fasted for 24 hours, CD-101, CD-102 and CD-103 compound have been orally administered according to method disclosed in Mizui et al., Jap. J. Pharmacol. 33: pp. 939-945 (1983). After 1 hour, 1.5 ml of 60% ethanol including 150 mM HCl has been orally administered to each animal. 1 hour later, animals have been sacrificed by cervical dislocation. After removing the stomach, the stomach has been fixed by injection of 13 ml of 2% formalin for 1 hour. After fixed stomach has been spread out, the lesion area has been measured using the photo by digital camera. Computer program Image J 1.38 (NIH, Bethesda, Md.) has been applied for measuring gastric lesion area (mm^2) The lesion inhibition rate has been calculated according to following equation. Further, 50% effective dose (ED50) has been also calculated using regression analysis.
Lesion inhibition rate(%)={gastric lesion area of control group(mm^2)−gastric lesion area of drug administration group(mm^2)}/gastric lesion area of control group(mm^2)×100

[3] = tested on: indomethacin inducing stomach ulcer model; experiment: Indomethacin inducing stomach ulcer model; format: in vivo, white rats; details: oral
Experimental: After white rats have been fasted for 24 hours, CD-101, CD-102 and CD-103 compound have been orally administered according to method disclosed in Yamasaki et al., Jap. J. Pharmacol. 49: pp. 441-448 (1989). After 1 hour, indomethacin (50 mg/kg) has been orally administered to each animal After fasting for 5 hours, animals have been sacrificed by cervical dislocation. After removing the stomach, the stomach has been fixed by injection of 13 ml of 2% formalin for 1 hour. After fixed stomach has been spread out, the lesion area has been measured using the photo by digital camera. Computer program Image J 1.38 (NIH, Bethesda, Md.) has been applied for measuring gastric lesion area (mm^2) The lesion inhibition rate and 50% effective dose (ED50) have been calculated as the same manner of HCl-EtOH model.

[4] = +S9 (metabolic activation method)

- Chromosomal aberration test result [1, 4]: positive positive
- Chromosomal aberration test result ([1]; −S9 (direct method)): positive positive
Structure (SMILES): C=C1C(=O)O[C@@H]2/C=C(\C)CC/C=C(\C)C[C@@H](OC(C)=O)C12 (stereo partly shown) [reference compound]

Structure (SMILES): CO[C@@]12[C@H](COC(N)=O)C3=C(C(=O)C(C)=C(N)C3=O)N1C[C@@H]1N[C@@H]12 [Mitomycin C, reference compound]
- Chromosomal aberration test results ([1]; −S9, dose 0.5 μg/kg): positive

Structure (SMILES): CC1=C2C3OC(=O)[C@@H](C)[C@@H]3CC[C@@]2(C)C=CC1=O (stereo partly shown) [reference compound]
- Lesion inhibition rate ([2]; Table 2, ineffective compounds, dose not given): no effect

- Chromosomal aberration test results ([1]; +S9, dose 2.5 μg/kg): negative
- Chromosomal aberration test results ([1]; +S9, dose 5 μg/kg): negative
- Induction of chromosomal aberration ([1]; CHL cell): do not induce the chromosomal aberration
- Chromosomal aberration test results ([1]; −S9, dose 0.625 μg/kg): negative
- Chromosomal aberration test results ([1]; −S9, dose 1.25 μg/kg): negative
Structure (SMILES): C=C1C(=O)O[C@@H]2[C@@H]3[C@@H](CC[C@@]3(C)O)[C@](C)(OC)CC[C@@H]12 [CD-103]

- Chromosomal aberration test result [1, 4]: positive positive
- Chromosomal aberration test result ([1]; −S9 (direct method)): positive positive
Structure (SMILES): CC(=O)O[C@@H]1/C=C(\C)CCC/C(C)=C/[C@H]2OC(=O)[C@H](CN(C)C)C12 (stereo partly shown) [reference compound]

- Chromosomal aberration test results ([1]; +S9, dose 20 μg/kg): negative
- Chromosomal aberration test results ([1]; +S9, dose 40 μg/kg): negative
- Induction of chromosomal aberration ([1]; CHL cell): do not induce the chromosomal aberration
- Chromosomal aberration test results ([1]; −S9, dose 5 μg/kg): negative
Structure (SMILES): C=C1C(=O)O[C@@H]2[C@@H](O)[C@]3(C)CC[C@H]3[C@](C)(OC)CC[C@@H]12 [CD-101]

- Chromosomal aberration test results ([1]; +S9, dose 5 μg/kg): negative
- Chromosomal aberration test results ([1]; +S9, dose 20 μg/kg): negative
- Induction of chromosomal aberration ([1]; CHL cell): do not induce the chromosomal aberration
- Chromosomal aberration test results ([1]; −S9, dose 1.25 μg/kg): negative
- Chromosomal aberration test results ([1]; −S9, dose 5 μg/kg): negative
Structure (SMILES): C=C1C(=O)O[C@@H]2[C@@H]3[C@@H](CC[C@@]3(C)O)C(=C)CC[C@@H]12 [CD-102]
- inhibition at 1 mg/kg ([2]; Rattus norvegicus, oral, dose 1 mg/kg, read-out: Lesion inhibition rate): 43%
- inhibition at 3 mg/kg ([2]; Rattus norvegicus, oral, dose 3 mg/kg, read-out: Lesion inhibition rate): 70.4%
- inhibition at 10 mg/kg ([2]; Rattus norvegicus, oral, dose 10 mg/kg, read-out: Lesion inhibition rate): 94.9%
- 50% effective dose (ED50) ([2]; oral, regression analysis): 1.31 mg/kg
- inhibition at 1 mg/kg ([3]; Rattus norvegicus, dose 1 mg/kg, read-out: Lesion inhibition rate): 41.6%
- inhibition at 3 mg/kg ([3]; Rattus norvegicus, dose 3 mg/kg, read-out: Lesion inhibition rate): 56.1%
- inhibition at 10 mg/kg ([3]; Rattus norvegicus, dose 10 mg/kg, read-out: Lesion inhibition rate): 77.2%
- 50% effective dose (ED50) ([3]; regression analysis): 1.82 mg/kg
- Cytotoxicity ([1]; CHL cell): neither cytotoxicity

- Chromosomal aberration test result [1, 4]: positive positive
- Chromosomal aberration test result ([1]; −S9 (direct method)): positive positive
Structure (SMILES): C=C1C(=O)O[C@@H]2/C=C(\C)CCC(O)C(C)(O)C[C@@H](OC(C)=O)C12 (stereo partly shown) [reference compound]
